Experimental data from PubChem BioAssay AID588482 (NMMLSC, 2011).
Activity calls are given as the source filed them.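 The calls were made as follows: active = a percent response above zero, which rounds up to a positive score; inactive = the rest.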

The molecules below were run against Beta-adrenergic receptor kinase 1 (Homo sapiens) (UniProt P25098) (assay: GRK2 kinase inhibitors, rhodopsin substrate, late-stage follow-up, orthogonal assay for GRK2 aptamer-displacement inhibitor project, biochemical, set 2 (AID 588482)). Details: GRK2 rhodopsin phosphorylation, 32P incorporation, SDS-PAGE; at 200 µM; hits give high values.
Chain of Beta-adrenergic receptor kinase 1 (Homo sapiens) (P25098 whole entry, looked up): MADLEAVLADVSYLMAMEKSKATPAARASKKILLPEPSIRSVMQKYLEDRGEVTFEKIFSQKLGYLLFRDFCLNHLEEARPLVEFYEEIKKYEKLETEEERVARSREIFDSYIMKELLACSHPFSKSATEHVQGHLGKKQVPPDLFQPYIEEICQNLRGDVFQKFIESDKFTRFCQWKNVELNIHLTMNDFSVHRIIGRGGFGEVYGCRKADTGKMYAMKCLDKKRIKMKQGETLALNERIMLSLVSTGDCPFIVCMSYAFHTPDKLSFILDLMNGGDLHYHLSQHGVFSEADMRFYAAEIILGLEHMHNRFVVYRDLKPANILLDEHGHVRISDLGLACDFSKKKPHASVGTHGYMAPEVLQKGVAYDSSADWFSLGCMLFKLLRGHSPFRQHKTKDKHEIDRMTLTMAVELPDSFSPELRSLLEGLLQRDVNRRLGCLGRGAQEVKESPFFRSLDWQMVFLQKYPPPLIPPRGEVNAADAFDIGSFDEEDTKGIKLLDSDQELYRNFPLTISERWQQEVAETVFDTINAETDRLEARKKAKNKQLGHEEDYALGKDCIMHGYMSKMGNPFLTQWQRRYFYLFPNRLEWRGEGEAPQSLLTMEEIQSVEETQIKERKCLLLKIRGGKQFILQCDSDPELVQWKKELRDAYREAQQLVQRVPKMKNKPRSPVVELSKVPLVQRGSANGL

Compound | inhibition
Cc1ccccc1NC(=O)CCS(=O)(=O)c1ccc(Br)s1 | -7.11% (inactive)
COC(=O)c1ccc(NC(=O)CCS(=O)(=O)c2ccc(Br)cc2)cc1 | -71.8% (inactive)
COc1ccc(CCNC(=O)CCS(=O)(=O)c2ccc(Br)cc2)cc1OC | -29.5% (inactive)
COc1ccc([N+](=O)[O-])cc1NC(=O)CCS(=O)(=O)c1ccc(Br)cc1 | 30.9%
Cc1cccc(CCNC(=O)CCS(=O)(=O)c2ccc(Br)cc2)c1 | -50.6% (inactive)
NS(=O)(=O)c1ccc(CCNC(=O)CCS(=O)(=O)c2ccc(Br)cc2)cc1 | -15.8% (inactive)
CCOc1ccc(NC(=O)CCS(=O)(=O)c2ccc(Br)cc2)cc1 | -28.6% (inactive)
COc1ccc(Cl)cc1NC(=O)CCS(=O)(=O)c1ccc(Br)cc1 | 11%
CCN(CC)c1ccc(NC(=O)CCS(=O)(=O)c2ccc(Br)cc2)c(C)c1 | 59.3%
Cc1ccc(CCNC(=O)CCS(=O)(=O)c2ccc(Br)cc2)cc1 | -30.2% (inactive)
O=C(CCS(=O)(=O)c1ccc(Br)cc1)Nc1ccc(Br)cc1F | 11.4%
C#CCSc1nc2sc3c(c2c(=O)n1C)CCC3 | 36.7%
O=C(CCS(=O)(=O)c1ccc(Br)cc1)NCc1cccs1 | 8.45%
COc1ccc(NC(=O)CCS(=O)(=O)c2ccc(Br)s2)cc1 | -90.5% (inactive)

More lines, now with the values ahead:

inhibition | Compound
-18.3% (inactive) | COC(=O)c1ccccc1NC(=O)CCS(=O)(=O)c1ccc(Br)s1
-42.4% (inactive) | O=C(CN1CCc2ccccc21)NC(=O)NCc1ccccc1
-20% (inactive) | CC(=O)N1CCN(Cc2nc3cc(Cl)ccc3c(=O)[nH]2)CC1
46.8% | CC(CS(=O)(=O)c1ccc2c(c1)NC(=O)CS2)C(=O)NCc1ccccc1Cl (stereo not drawn)
0.79% | CCOc1ccccc1NC(=O)CCS(=O)(=O)c1ccc(Br)cc1
-32.3% (inactive) | O=C(CCS(=O)(=O)c1ccc(Br)s1)Nc1ccccc1Br
-54% (inactive) | O=C(CSc1nc2ccccc2c(=O)n1-c1ccccc1)NC(=O)CN1CCCC1=O
-3.83% (inactive) | Cc1cc2ccccc2n1CCNC(=O)C(C)Oc1ccccc1 (stereo not drawn)
46.5% | O=C(O)Cc1ccc(-n2cccc2)cc1
